Experimental data as given in paper PMC5973626, “A secreted Heat shock protein 90 of Trichomonas vaginalis” (PLoS Neglected Tropical Diseases, 2018).

Columns and labels:
Format in all cases: binding
[1] = target: T1, TV910 (Grp94 ortholog, TVAG_378910) (Trichomonas vaginalis, UniProt A2DB82); assay: intrinsic tryptophan fluorescence quenching; also ATPase kinetics (KM […])
T1 construct: 6x-His tag fusion expressed in E. coli

[2] = target: T2, TV560 (cytosolic Hsp90, TVAG_153560) (Trichomonas vaginalis, UniProt A2EPR1); assay: as above
T2 construct: full-length, 6x-His tag fusion expressed in E. coli (721 amino acids)

[3] = target: T1, TV910 (Grp94 ortholog, TVAG_378910); assay: intrinsic tryptophan fluorescence quenching; also ATPase inhibition (IC50 […])
[4] = target: T2, TV560 (cytosolic Hsp90, TVAG_153560); assay: as above

T1 sequence (A2DB82 entry or part of it): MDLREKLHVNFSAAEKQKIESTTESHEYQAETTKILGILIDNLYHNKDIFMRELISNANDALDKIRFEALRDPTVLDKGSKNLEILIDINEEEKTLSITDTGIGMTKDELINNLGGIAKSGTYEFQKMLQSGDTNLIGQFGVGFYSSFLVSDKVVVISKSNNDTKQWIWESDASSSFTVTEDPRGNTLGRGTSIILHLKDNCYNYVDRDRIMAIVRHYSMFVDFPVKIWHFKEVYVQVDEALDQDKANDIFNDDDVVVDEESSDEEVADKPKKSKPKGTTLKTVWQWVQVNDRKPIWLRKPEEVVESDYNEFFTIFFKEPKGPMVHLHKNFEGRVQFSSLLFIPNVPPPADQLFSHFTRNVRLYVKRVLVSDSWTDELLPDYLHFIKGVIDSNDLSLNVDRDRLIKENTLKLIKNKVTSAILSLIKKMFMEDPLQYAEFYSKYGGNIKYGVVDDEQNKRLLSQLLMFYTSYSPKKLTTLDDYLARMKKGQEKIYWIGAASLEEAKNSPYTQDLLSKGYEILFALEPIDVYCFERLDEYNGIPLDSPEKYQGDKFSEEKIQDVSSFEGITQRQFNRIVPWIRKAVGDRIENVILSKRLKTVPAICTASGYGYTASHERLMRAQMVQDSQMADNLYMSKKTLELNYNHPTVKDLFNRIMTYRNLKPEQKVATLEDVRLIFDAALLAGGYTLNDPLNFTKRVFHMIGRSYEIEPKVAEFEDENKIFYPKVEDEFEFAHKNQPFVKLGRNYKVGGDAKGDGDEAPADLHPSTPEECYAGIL
T2 sequence (A2EPR1 entry or part of it): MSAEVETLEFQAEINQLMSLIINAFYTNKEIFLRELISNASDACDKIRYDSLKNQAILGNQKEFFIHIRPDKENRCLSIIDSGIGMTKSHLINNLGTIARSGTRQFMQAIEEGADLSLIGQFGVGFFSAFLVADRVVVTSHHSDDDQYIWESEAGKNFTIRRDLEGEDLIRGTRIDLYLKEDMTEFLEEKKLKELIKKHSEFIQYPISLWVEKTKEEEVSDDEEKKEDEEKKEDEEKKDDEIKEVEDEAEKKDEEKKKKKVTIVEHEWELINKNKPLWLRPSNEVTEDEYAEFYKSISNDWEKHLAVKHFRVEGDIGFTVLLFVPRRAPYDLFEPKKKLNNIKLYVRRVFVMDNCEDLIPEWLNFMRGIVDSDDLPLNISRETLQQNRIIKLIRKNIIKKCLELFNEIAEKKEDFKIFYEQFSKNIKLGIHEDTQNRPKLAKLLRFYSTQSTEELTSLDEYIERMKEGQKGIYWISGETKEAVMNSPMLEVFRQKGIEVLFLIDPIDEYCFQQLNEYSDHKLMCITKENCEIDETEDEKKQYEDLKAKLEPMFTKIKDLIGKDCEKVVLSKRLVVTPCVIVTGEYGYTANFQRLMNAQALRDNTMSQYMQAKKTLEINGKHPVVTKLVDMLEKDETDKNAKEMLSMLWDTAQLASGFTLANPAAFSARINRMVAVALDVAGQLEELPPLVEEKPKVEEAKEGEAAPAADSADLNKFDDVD

In the case of `Nc1ncnc2c1ncn2[C@@H]1O[C@H](COP(=O)(O)OP(=O)(O)OP(=O)(O)O)[C@@H](O)[C@H]1O` [ATP], the Kd [1] is reported as 722 µM and the Kd [2] is reported as 538 µM.
Molecule `C=CCNC1=C2C[C@@H](C)C[C@H](OC)[C@H](O)[C@@H](C)/C=C(\C)[C@H](OC(N)=O)[C@@H](OC)/C=C\C=C(/C)C(=O)NC(=CC1=O)C2=O` [17-AAG] has a Kd [3] of 15.7 µM and a Kd [4] of 11.5 µM.
